Assay results published in publication PMC7253177, “Gain of channel function and modified gating properties in TRPM3 mutants causing intellectual disability and epilepsy” (eLife, 2020).

Molecular target: T1, WT human TRPM3 (Homo sapiens, UniProt Q9HCF6)
T1 construct: expressed in transfected cells; host or cells: HEK293T
T1 sequence (Q9HCF6 1-1325 isoform Q9HCF6-10): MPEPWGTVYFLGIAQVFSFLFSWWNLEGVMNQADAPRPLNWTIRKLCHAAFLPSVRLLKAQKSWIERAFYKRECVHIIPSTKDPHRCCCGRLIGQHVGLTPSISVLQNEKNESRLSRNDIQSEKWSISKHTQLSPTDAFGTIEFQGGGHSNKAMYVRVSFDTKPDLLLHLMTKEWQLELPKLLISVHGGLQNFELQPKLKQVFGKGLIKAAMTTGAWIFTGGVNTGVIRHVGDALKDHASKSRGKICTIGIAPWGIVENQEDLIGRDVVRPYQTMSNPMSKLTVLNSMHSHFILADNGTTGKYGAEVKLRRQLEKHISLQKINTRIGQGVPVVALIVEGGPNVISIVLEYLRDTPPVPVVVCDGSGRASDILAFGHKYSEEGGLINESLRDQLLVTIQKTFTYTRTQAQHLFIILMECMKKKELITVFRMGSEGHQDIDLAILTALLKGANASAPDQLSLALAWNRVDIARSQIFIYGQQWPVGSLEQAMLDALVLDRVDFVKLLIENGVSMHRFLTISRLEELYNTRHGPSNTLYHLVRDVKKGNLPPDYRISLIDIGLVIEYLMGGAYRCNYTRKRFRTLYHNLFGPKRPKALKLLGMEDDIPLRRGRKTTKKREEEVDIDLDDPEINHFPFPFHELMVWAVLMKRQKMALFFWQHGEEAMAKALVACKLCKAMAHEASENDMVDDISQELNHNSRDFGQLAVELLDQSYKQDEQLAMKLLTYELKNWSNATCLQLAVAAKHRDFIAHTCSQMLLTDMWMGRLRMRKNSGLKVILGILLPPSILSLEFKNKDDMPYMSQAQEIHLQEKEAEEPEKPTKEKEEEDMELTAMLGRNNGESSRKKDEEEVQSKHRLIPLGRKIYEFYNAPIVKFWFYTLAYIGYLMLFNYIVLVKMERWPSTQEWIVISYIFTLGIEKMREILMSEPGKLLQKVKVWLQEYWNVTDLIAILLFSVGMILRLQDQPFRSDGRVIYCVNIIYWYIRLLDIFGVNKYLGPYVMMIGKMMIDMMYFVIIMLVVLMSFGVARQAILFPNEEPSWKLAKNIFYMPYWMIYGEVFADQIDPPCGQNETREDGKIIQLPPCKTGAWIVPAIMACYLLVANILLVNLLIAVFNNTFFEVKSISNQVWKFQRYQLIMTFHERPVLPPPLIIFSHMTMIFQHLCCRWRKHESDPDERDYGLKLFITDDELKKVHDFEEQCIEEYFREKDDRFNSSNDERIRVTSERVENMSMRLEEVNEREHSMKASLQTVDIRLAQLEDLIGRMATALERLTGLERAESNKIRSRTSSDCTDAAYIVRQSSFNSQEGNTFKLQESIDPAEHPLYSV
Assay: Whole-cell patch clamp, HEK293T cells expressing WT hTRPM3
Format: cell-based
Conditions: WT
Protocol: HEK293T cells ([Graham et al., 1977]) were cultured as described previously ([Vriens et al., 2007]) and used up in passage number 14. HEK293T cells were tested for the lack of mycoplasma and transiently transfected with 2 µg of DNA using TransIT transfection reagent (Mirus) 36–48 hr before the measurements. In case of co-cultures a ratio of 1:1 between hTRPM3-YFP WT and mutants-YFP DNA was used.
Standard whole-cell patch-clamp recordings were performed with an EPC-10 amplifier and the PatchMasterPro Software (HEKA Elektronik, Lambrecht, Germany). Current measurements were performed at a sampling rate of 20 kHz and currents were digitally filtered at 2.9 kHz. In all measurements, 70% of the series resistance was compensated. The standard internal solution contained (in mM): 100 CsAsp, 45 CsCl, 10 EGTA, 10 HEPES, 1 MgCl2 (pH 7.2 with CsOH) or 140 potassium gluconate, 5 EGTA, 1 MgCl2, 10 HEPES and 2 NaATP (pH 7.3 with CsOH) for the measurements of Gβγ mediated inhibition and the standard extracellular solution contained (in mM): 150 NaCl, 1 MgCl2, 10 HEPES (pH 7.4 with NaOH). The standard patch pipette resistance was between 2 MΩ and 4 MΩ when filled with pipette solution. In experiments allowing Ca^2+-dependent desensitization of TRPM3, Mg^2+ was replaced by Ca^2+ in the extracellular solution, and Cs^+ was replaced by Na^+ in the pipette solution. […] The chemical ligands were dissolved in bath solution from a stock diluted in DMSO.

## pregnenolone sulfate [PS]
PS 40 µM
  Activation of whole-cell currents: reversibly activated outwardly rectifying whole-cell currents

## CCC1(c2ccccc2)C(=O)NCNC1=O [primidone]
Primidone 25 µM, PS 40 µM, ±80 mV, cells co-expressing µ-opioid receptor
  Inhibition of PS-activated inward and outward currents: full inhibition

## Clc1ccccc1C(c1ccccc1)(c1ccccc1)n1ccnc1 [Clt, clotrimazole]
Clt 10 µM
  Activation of whole-cell currents in the absence of PS: did not activate currents by itself
Clt 10 µM, PS 40 µM
  Effect on the response to PS (whole-cell currents): potentiated responses to PS
